These results are taken from PubChem BioAssay (NCI).

Among the test systems are LOX IMVI melanoma; OVCAR-4 ovarian; NCI/ADR-RES ovarian; HT29 colon; TK-10 renal; SW-620 colon; K-562 leukemia; SK-MEL-28 melanoma; EKVX NSCLC; MDA-MB-435; OVCAR-8 ovarian; U251 CNS.
Test in all cases: DTP human tumour cell line panel, 48 h

One may read the TGI as the concentration at which net growth stops. A low value points to more potent growth arrest.

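Results reflect a 48-hour exposure of cells in 96-well plates to compound at five concentrations. Definition used: TGI = concentration required for complete inhibition of growth.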 Where only a bound is given, the exact number is not on record here.

As for `O=C1CNc2cc(N3CCOCC3)ccc2N1`, the TGI in the assay with LOX IMVI melanoma, with OVCAR-4 ovarian, in the assay on NCI/ADR-RES ovarian, with HT29 colon, with TK-10 renal and in the assay on SW-620 colon was above 100 µM throughout. In addition, the TGI in the assay on K-562 leukemia, with SK-MEL-28 melanoma, with EKVX NSCLC, in the assay on MDA-MB-435, with OVCAR-8 ovarian and with U251 CNS was above 100 µM each time.

Consider `CCOC(=O)NC(Nc1ccc(S(=O)(=O)Nc2ccc(OC)nn2)cc1)(C(F)(F)F)C(F)(F)F`, for which the concentration for total growth inhibition (TGI) in the assay with LOX IMVI melanoma is 82 µM; with OVCAR-4 ovarian it was above 100 µM; in the assay on NCI/ADR-RES ovarian, 59.9 µM; in the assay with HT29 colon it was above 100 µM; in the assay with TK-10 renal, 68.8 µM; in the assay on SW-620 colon it was above 100 µM. Besides, the total growth inhibition concentration (TGI) was above 100 µM in the assay on K-562 leukemia; 55.6 µM in the assay with SK-MEL-28 melanoma; above 100 µM in the assay on EKVX NSCLC; 35.8 µM with MDA-MB-435; above 100 µM in the assay with OVCAR-8 ovarian; 41 µM in the assay with U251 CNS.

On to `CCOc1cc(/C=N/c2nc3cc4sc(/N=C/c5ccc(O)c(OCC)c5)nc4cc3s2)ccc1O`, for which the TGI in the assay with LOX IMVI melanoma, in the assay with OVCAR-4 ovarian, with NCI/ADR-RES ovarian, in the assay with HT29 colon, with TK-10 renal and with SW-620 colon was above 100 µM each time. In addition, the TGI is above 100 µM with K-562 leukemia; 42.7 µM with SK-MEL-28 melanoma; above 100 µM with EKVX NSCLC; above 100 µM in the assay on MDA-MB-435; above 100 µM with OVCAR-8 ovarian; above 100 µM in the assay with U251 CNS.

On to `CN(CC(=O)O)CC(=O)O`, for which the total growth inhibition concentration (TGI) with LOX IMVI melanoma, in the assay on OVCAR-4 ovarian, with NCI/ADR-RES ovarian, in the assay on HT29 colon, in the assay on TK-10 renal and with SW-620 colon was above 100 µM each time. Further, the TGI with K-562 leukemia, with SK-MEL-28 melanoma, in the assay on EKVX NSCLC, in the assay with MDA-MB-435, in the assay with OVCAR-8 ovarian and with U251 CNS was above 100 µM each time.

`Brc1c2c(c(Br)c3nsnc13)N=S=N2`: the total growth inhibition concentration (TGI) in the assay on LOX IMVI melanoma is 13.9 µM; with OVCAR-4 ovarian, above 55.7 µM; in the assay on NCI/ADR-RES ovarian it was 79.8 µM; in the assay on HT29 colon, above 60.4 µM; in the assay with TK-10 renal it was 47.3 µM; in the assay on SW-620 colon, above 68.5 µM. Also, the total growth inhibition concentration (TGI) with K-562 leukemia is 33.3 µM; with SK-MEL-28 melanoma, above 70.7 µM; in the assay on EKVX NSCLC, above 74 µM; in the assay with MDA-MB-435, above 74.4 µM; in the assay with OVCAR-8 ovarian, 79.7 µM; in the assay with U251 CNS, 46.7 µM.

Turning to `O=C(NC(=O)c1ccccc1)OC(c1ccccc1)C1CO1` (centres undefined), the TGI in the assay with LOX IMVI melanoma, in the assay on OVCAR-4 ovarian, with NCI/ADR-RES ovarian, in the assay on HT29 colon, with TK-10 renal and in the assay with SW-620 colon was above 100 µM throughout. Also, the TGI in the assay with K-562 leukemia, in the assay with SK-MEL-28 melanoma, with EKVX NSCLC, with MDA-MB-435, in the assay on OVCAR-8 ovarian and with U251 CNS was above 100 µM throughout.

In the case of `N#Cc1sc2c(c1OC(=O)c1ccc(Cl)cc1)c(=O)n(-c1ccccc1)c(=S)n2-c1ccccc1`, the total growth inhibition concentration (TGI) with LOX IMVI melanoma was 37.3 µM; with OVCAR-4 ovarian, 76.7 µM; in the assay with NCI/ADR-RES ovarian, 73.2 µM; in the assay on HT29 colon it was 76.3 µM; in the assay with TK-10 renal, 88.7 µM; in the assay on SW-620 colon, 46.9 µM. The TGI in the assay with K-562 leukemia was above 100 µM; in the assay with SK-MEL-28 melanoma, 47.2 µM; in the assay on EKVX NSCLC, 49.2 µM; in the assay with MDA-MB-435, 52.5 µM; in the assay on OVCAR-8 ovarian, 67.1 µM; in the assay on U251 CNS, 38.6 µM.

For `COC(=O)[C@H](C)NC(=O)C1(CNC(=O)[C@H](C)NC(=O)OC(C)(C)C)Cc2ccccc2-c2ccccc2C1`, the TGI in the assay on LOX IMVI melanoma was 9.13 µM; with OVCAR-4 ovarian it was above 63.5 µM; in the assay on NCI/ADR-RES ovarian, 41.4 µM; with HT29 colon, 39.8 µM; in the assay on TK-10 renal, above 59.2 µM; in the assay with SW-620 colon, above 64.3 µM. For the same molecule, the TGI in the assay on K-562 leukemia was 54 µM; in the assay with SK-MEL-28 melanoma, above 70.6 µM; in the assay with EKVX NSCLC it was 47 µM; with MDA-MB-435 it was 38.2 µM; with OVCAR-8 ovarian it was 18.2 µM; with U251 CNS it was 36.5 µM.

For `O=C(NNC(=S)Nc1ccc(Cl)cc1)C12CC3CC(CC(C3)C1)C2`, the total growth inhibition concentration (TGI) in the assay with LOX IMVI melanoma is 19 µM; in the assay with OVCAR-4 ovarian, 54.5 µM; in the assay on NCI/ADR-RES ovarian it was 14.8 µM; with HT29 colon, 21.4 µM; in the assay with TK-10 renal, 70.8 µM; in the assay on SW-620 colon, 35.6 µM. Also, the TGI in the assay with K-562 leukemia is above 37.9 µM; in the assay with SK-MEL-28 melanoma, 60.8 µM; with EKVX NSCLC, 55 µM; in the assay on MDA-MB-435 it was 37.8 µM; in the assay with OVCAR-8 ovarian, above 44.6 µM; in the assay with U251 CNS it was 24.8 µM.

Turning to `CN1C(=O)N/C(=C\c2ccc(S(=O)(=O)N/N=C/c3ccccc3)cc2)C1=O`, the TGI in the assay on LOX IMVI melanoma, in the assay on OVCAR-4 ovarian, with NCI/ADR-RES ovarian, in the assay on HT29 colon, with TK-10 renal and with SW-620 colon was above 100 µM each time. Further, the concentration for total growth inhibition (TGI) with K-562 leukemia, in the assay on SK-MEL-28 melanoma, with EKVX NSCLC, in the assay with MDA-MB-435, with OVCAR-8 ovarian and in the assay on U251 CNS was above 100 µM throughout.

As to `Cc1cccc2c(N)c3cccc(C(=O)NCC[N+](C)(C)Cc4ccc(S(C)(=O)=O)cc4)c3nc12`, the total growth inhibition concentration (TGI) in the assay on LOX IMVI melanoma, in the assay on OVCAR-4 ovarian, in the assay on NCI/ADR-RES ovarian, with HT29 colon, with TK-10 renal and with SW-620 colon was above 100 µM in each case. Besides, the TGI in the assay on K-562 leukemia is above 52.2 µM; in the assay on SK-MEL-28 melanoma it was above 100 µM; in the assay on EKVX NSCLC, above 100 µM; in the assay with MDA-MB-435, above 100 µM; with OVCAR-8 ovarian it was above 100 µM; in the assay with U251 CNS it was above 100 µM.

For the molecule `COc1ccc(C2CC(c3ccc(NS(=O)(=O)c4cc([N+](=O)[O-])ccc4C)cc3)=NN2S(=O)(=O)c2cc([N+](=O)[O-])ccc2C)cc1` (centres undefined), the TGI in the assay with LOX IMVI melanoma, in the assay on OVCAR-4 ovarian, in the assay with NCI/ADR-RES ovarian, in the assay on HT29 colon, in the assay on TK-10 renal and in the assay with SW-620 colon was above 100 µM in each case. Also, the total growth inhibition concentration (TGI) with K-562 leukemia, in the assay on SK-MEL-28 melanoma, in the assay on EKVX NSCLC, in the assay with MDA-MB-435, in the assay on OVCAR-8 ovarian and with U251 CNS was above 100 µM each time.

Consider `OCC1C2CCC3(OCCO3)C12` (centres undefined), for which the total growth inhibition concentration (TGI) in the assay on LOX IMVI melanoma, in the assay with OVCAR-4 ovarian, with NCI/ADR-RES ovarian, with HT29 colon, in the assay on TK-10 renal and with SW-620 colon was above 100 µM throughout. In addition, the concentration for total growth inhibition (TGI) with K-562 leukemia, in the assay with SK-MEL-28 melanoma, in the assay with EKVX NSCLC, with MDA-MB-435, in the assay on OVCAR-8 ovarian and in the assay on U251 CNS was above 100 µM in each case.

With `Cc1nn(C(=O)c2ccc(Cl)cc2)c2c1C(c1ccccc1O)SC(N)=N2` (centres undefined), the TGI in the assay with LOX IMVI melanoma, with OVCAR-4 ovarian, with NCI/ADR-RES ovarian, with HT29 colon, in the assay with TK-10 renal and in the assay on SW-620 colon was above 10 µM in each case. For the same molecule, the TGI in the assay with K-562 leukemia, in the assay on SK-MEL-28 melanoma, with EKVX NSCLC, in the assay on MDA-MB-435, with OVCAR-8 ovarian and with U251 CNS was above 10 µM throughout.

For the molecule `CC(C)(C)C(O)CC(O)(C(F)(F)F)C(F)(F)F` (centres undefined), the total growth inhibition concentration (TGI) in the assay on LOX IMVI melanoma, in the assay with OVCAR-4 ovarian, with NCI/ADR-RES ovarian, in the assay with HT29 colon, in the assay on TK-10 renal and in the assay with SW-620 colon was above 100 µM each time. In addition, the concentration for total growth inhibition (TGI) in the assay with K-562 leukemia, in the assay with SK-MEL-28 melanoma, in the assay on EKVX NSCLC, in the assay with MDA-MB-435, in the assay with OVCAR-8 ovarian and with U251 CNS was above 100 µM each time.

For `O=C(O)CCNc1ncc2c(n1)-c1ccccc1OC2`, the concentration for total growth inhibition (TGI) with LOX IMVI melanoma, in the assay on OVCAR-4 ovarian, in the assay on NCI/ADR-RES ovarian, in the assay with HT29 colon, in the assay on TK-10 renal and in the assay on SW-620 colon was above 100 µM throughout. In addition, the total growth inhibition concentration (TGI) in the assay with K-562 leukemia, in the assay with SK-MEL-28 melanoma, in the assay with EKVX NSCLC, in the assay on MDA-MB-435, in the assay with OVCAR-8 ovarian and with U251 CNS was above 100 µM each time.

As to `CCOC(CN(C)C(=O)Nc1ccc(Cl)c(Cl)c1)OCC`, the concentration for total growth inhibition (TGI) in the assay with LOX IMVI melanoma, in the assay on OVCAR-4 ovarian, in the assay on NCI/ADR-RES ovarian, with HT29 colon, with TK-10 renal and in the assay with SW-620 colon was above 10 µM throughout. The TGI in the assay on K-562 leukemia, in the assay on SK-MEL-28 melanoma, in the assay with EKVX NSCLC, with MDA-MB-435, in the assay on OVCAR-8 ovarian and in the assay with U251 CNS was above 10 µM each time.
